The values below come from patent publication US5474988A, “5-phenylpyrrolo-1,4-benzoxazine and 5-phenylpyrrolo-1,4-benzothiazine compounds, process and intermediates for their production and pharmaceutical compositions containing them” (Kali-Chemie Pharma GmbH, priority 1993, dated 1995).

One assay has as its system cutaneous histamine induced anaphylactoid reactions. As to the kind of experiment: inhibition of the anaphylactoid cutaneous reaction induced by histamine. The class given is in vivo, Sprague-Dawley rats. Conditions: Rattus norvegicus, po, 0.5 h; 2 × 10^-5 mole/kg p.o., one hour before histamine; assessed 30 minutes after provocation; read-out: Inhibitory action against cutaneous histamine induced anaphylactoid reactions in rats, % inhibition. The procedure: 1. Determination of the inhibition of the anaphylactoid cutaneous reaction induced by histamine.
The inhibition of the anaphylactoid cutaneous reaction induced by histamine was determined in Sprague-Dawley rats having body weights of 150-180 g.
In order to determine the histamine-induced anaphylactoid skin reaction, 50 μl of a physiological saline solution containing 0.8 mg/ml of histamine were injected into the animals intradermally on one flank. Immediately afterward, a solution of 26.4 mg/kg of a blue dye (Evan's Blue) was administered i.v. to the animals.
The test substances were dissolved in distilled water which contains 1% by volume of dimethylformamide and 1% by volume of Tween®20 (=polyoxyethylene(20) sorbitan monolaurate). One hour before the histamine injection, each animal received 2×10^-5 mol/kg of test substance, in each case administered orally in 0.5 ml of solution. A control group received only the solvent for comparison.
The histamine-induced anaphylactoid reactions which manifested themselves by edema formation, swelling and exudation of blue dye are assessed 30 minutes after provocation by the histamine injection. This is carried out by visual determination of the extent of the exudation of blue dye at the sites of edema formation. With the aid of comparison scales, the percentage inhibition of the anaphylactoid reactions produced by the test substances is determined in comparison with the reactions of the control animals not treated with test substance.
The results obtained with compounds of the formula I by the above test method are reproduced in the following table A. The example numbers given as identifiers for the compounds of formula I refer to the subsequent preparative examples.
Consider `Cc1ccnc(N2CCN(C(=O)CCC3Cn4c(-c5ccc(O)cc5)c(C)c5cccc(c54)O3)CC2)c1` (stereo not shown) [Example 15], for which the inhibition in vivo at 20 µmol/kg stood at 32%. Still for that read-out and setting: the result for `Cc1ccnc(N2CCN(C(=O)CCC3Cn4c(-c5cc(C)c(O)c(C)c5)c(C)c5cccc(c54)O3)CC2)c1` (stereo not shown) [Example 25] reads 30%.

On to `Cc1ccnc(N2CCN(CCC3Cn4c(-c5cc(C)c(O)c(C)c5)c(C)c5cc(O)cc(c54)O3)CC2)c1` (stereo not shown) [Example 44], for which the inhibition in vivo at 20 µmol/kg came to 37%. Same read-out and setting: the result for `COc1cc(-c2c(C)c3cccc4c3n2CC(CCC(=O)N2CCN(c3ccc(C)cn3)CC2)O4)ccc1O` (stereo not shown) [Example 39] reads 32%; that for `Cc1ccnc(N2CCN(CCC3Cn4c(-c5cc(C)c(O)c(C)c5)c(C)c5cc(F)cc(c54)O3)CC2)c1` (stereo not shown) [Example 42], 36%. As for `Cc1cc(-c2c(C)c3c(F)ccc4c3n2CC(CCN2CCN(c3ccccn3)CC2)O4)cc(C)c1O` (stereo not shown) [Example 27], the inhibition in vivo at 20 µmol/kg stood at 55%. Consider `COc1cc2c3c(c1)c(C)c(-c1cc(C)c(O)c(C)c1)n3CC(CCN1CCN(c3cc(C)ccn3)CC1)O2` (stereo not shown) [Example 43], for which the inhibition in vivo at 20 µmol/kg is 32%. Regarding `Cc1ccnc(N2CCN(CCCC3Cn4c(-c5cc(C)c(O)c(C)c5)c(C)c5c(F)ccc(c54)O3)CC2)c1` (stereo not shown) [Example 29], the inhibition in vivo at 20 µmol/kg was 46%.

The next assay deals with T1, 5-lipoxygenase (Homo sapiens, UniProt P09917).
T1 construct: the 5-LO activity in human whole blood; from tissue; host or cells: heparinized human whole blood
T1 sequence (P09917 1-674): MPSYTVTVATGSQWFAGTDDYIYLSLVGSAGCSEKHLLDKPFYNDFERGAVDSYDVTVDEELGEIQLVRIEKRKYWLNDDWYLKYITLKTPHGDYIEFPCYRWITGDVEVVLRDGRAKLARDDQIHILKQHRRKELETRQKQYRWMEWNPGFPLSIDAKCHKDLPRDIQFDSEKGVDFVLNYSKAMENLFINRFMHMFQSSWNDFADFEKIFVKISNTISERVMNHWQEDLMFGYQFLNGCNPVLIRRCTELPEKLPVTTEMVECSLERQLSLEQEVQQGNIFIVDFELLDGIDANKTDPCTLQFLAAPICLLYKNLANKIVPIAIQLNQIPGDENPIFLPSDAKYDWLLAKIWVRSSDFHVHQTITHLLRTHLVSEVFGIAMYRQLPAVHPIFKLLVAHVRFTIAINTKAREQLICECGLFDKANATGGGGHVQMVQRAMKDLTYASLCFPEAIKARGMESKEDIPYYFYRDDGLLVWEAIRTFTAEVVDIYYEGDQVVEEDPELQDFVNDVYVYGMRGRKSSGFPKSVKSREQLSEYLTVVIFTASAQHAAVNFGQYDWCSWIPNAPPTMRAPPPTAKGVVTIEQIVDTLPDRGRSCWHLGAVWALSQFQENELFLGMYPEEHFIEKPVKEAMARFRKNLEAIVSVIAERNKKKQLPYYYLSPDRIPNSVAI
As to the kind of experiment: 5-lipoxygenase inhibition in human blood (LTB4 formation). The class given is cell-based. Conditions: 0.5 h; 10^-5 mole/liter; human whole blood, 37° C.; read-out: In vitro % inhibitory activity on LTB4 formation in human blood stimulated by calcimycin. The procedure:
4c. In vitro determination of 5-lipoxygenase inhibition in human blood.
The inhibitory activity of the test substances on the 5-LO activity in human whole blood taking place after stimulation by calcimycin is investigated according to the method described by P. Gresele et al. (Biochem. Biophys. Commun. 137 (1986), 334).
For carrying out the test, human blood is collected in sterile 50 ml test tubes which contain 10 units of heparin/ml of blood and incubated for 5-10 minutes at 37° C. Amounts of test substance, dissolved in 10 μl of dimethylformamide, are added to 2 ml samples of this blood such that a final concentration of test substance of 10 μmol/l is achieved in the samples. Only 10 μl of the solvent were added to control samples. The samples were then incubated for 10 minutes at 37° C. In order to stimulate LTB4 synthesis, an amount of calcimycin, dissolved in 200 μl of plasma, was added to the samples such that a calcimycin concentration of 60 μmol/l was achieved, and the samples were incubated for a further 30 minutes at 37° C. The reaction was then terminated by addition of 200 μl of an ethylene glycol tetraacetate solution (corresponding to an ethylene glycol acetate concentration in the sample of 100 mmol/l). The samples are kept in an ice-bath for 10 minutes and then centrifuged (5 minutes at 1000×g). The supernantant liquids, which contain the LTB4 formed during the reaction time, are each separated and, for precipitation of the proteins contained therein, mixed with 3 ml of acetone and kept for 45 minutes at 4° C. Then the samples are centrifuged again (5 minutes at 1500×g), the supernatant liquids are separated, and the content of LTB4 therein is determined in a known manner by means of an enzyme immunoassay (=EIA). From the measured LTB4 values, the inhibitory activity of the test substances in human whole blood was calculated in % inhibition of LTB4 synthesis in comparison to the control samples containing no test substance.
Regarding `Cc1cc(-c2c(C)c3c(O)ccc4c3n2CC(CCC(=O)N2CCN(c3ccccn3)CC2)O4)cc(C)c1O` (stereo not shown) [Example 71], the inhibition at 10 µM amounted to 100%.

As to `Cc1cc(-c2c(C)c3c(OCc4ccccc4)ccc4c3n2CC(CCC(=O)N2CCN(c3ccccn3)CC2)O4)cc(C)c1O` (stereo not shown) [Example 75], the inhibition at 10 µM was found to be 96%.

On to `Cc1ccnc(N2CCN(C(=O)CCC3Cn4c(-c5ccc(O)cc5)c(C)c5c(O)ccc(c54)O3)CC2)c1` (stereo not shown) [Example 69], for which the inhibition at 10 µM turned out to be 95%. `Cc1cccnc1N1CCN(CCCC2Cn3c(-c4cc(C)c(O)c(C)c4)c(C)c4c(O)ccc(c43)O2)CC1` (stereo not shown) [Example 74]: the inhibition at 10 µM worked out at 100%. Same read-out and setting: the result for `COc1cc(-c2c(C)c3c(O)ccc4c3n2CC(CCC(=O)N2CCN(c3ccccn3)CC2)O4)cc(C)c1O` (stereo not shown) [Example 72] reads 95%; that for `Cc1ccnc(N2CCN(CCCC3Cn4c(-c5cc(C)c(O)c(C)c5)c(C)c5c(O)ccc(c54)O3)CC2)c1` (stereo not shown) [Example 73], 100%; that for `Cc1ccnc(N2CCN(C(=O)CCC3Cn4c(-c5cc(C)c(O)c(C)c5)c(C)c5c(O)ccc(c54)O3)CC2)c1` (stereo not shown) [Example 67], 100%. Turning to `Cc1ccnc(N2CCN(CCC3Cn4c(-c5ccc(O)cc5)c(C)c5c(O)ccc(c54)O3)CC2)c1` (stereo not shown) [Example 4, 2,3-Dihydro-7-hydroxy-5-(4-hydroxyphenyl)-6-methyl-2-[2-(4-(4-methylpyridin-2-yl)piperazin-1-yl)ethyl]pyrrolo[1,2,3-de]-1,4-benzoxazine], the inhibition at 10 µM came to 86%.
